pKd: −log10 of the molar value. *1 amine or outer side, *2 acyl side, *3 side chain or, on linkers, in order; H or OH if unused. Where a SMILES comes first, the peptide text is derived from it. Bridges are numbered along the chain shown (N, C = ends). [ ]: non-standard residue; d: D form. Phenylene(1,4-NHCOCH2)2 = O=C(C[*:1])Nc1ccc(NC(=O)C[*:2])cc1
Molecular target: T1, CHIP23-303 recombinant protein (Homo sapiens, UniProt Q9UNE7)
T1 construct: 6xHis (N, cleaved yes); TEV site (N, cleaved yes); made in house; host or cells: E. coli BL21 CodonPlus
T1 sequence (Q9UNE7 23-303): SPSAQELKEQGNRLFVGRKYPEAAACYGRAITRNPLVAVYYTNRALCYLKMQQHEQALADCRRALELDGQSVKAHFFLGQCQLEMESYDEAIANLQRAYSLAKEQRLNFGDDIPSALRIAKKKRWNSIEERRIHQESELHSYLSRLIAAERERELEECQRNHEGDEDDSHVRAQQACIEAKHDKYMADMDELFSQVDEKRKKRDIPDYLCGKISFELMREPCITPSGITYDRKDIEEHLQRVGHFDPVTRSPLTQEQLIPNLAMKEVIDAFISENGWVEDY
Assay: Competition fluorescence polarization with CHIP23-303 and HSP70-derived probe 5FAM-bAla-[…]
Assay type: binding
Details: competition FP, 400 nM CHIP23-303, 20 nM probe, 1 hour at room temperature; read-out: Measured KD
Protocol: For the competition FP of CHIP, stapled peptides at 10 mM in DMSO were serially diluted 1:3 in DMSO for a total of 11 concentrations using a Mosquito LV (SPT Labtech), then diluted 1000-fold in buffer (1×HBS-P+, Cytiva) in duplicate by the Mosquito LV (SPT Labtech) into a black polystyrene 384-well plate (Corning) (11-point three-fold peptide dilution series with top concentration=10 μM). The assay was performed with 400 nM CHIP23-303 recombinant protein as target, and 20 nM BCHIP-binding peptide as probe (5FAM-bAla-[…] (SEQ ID NO: 18), derived from HSP70). The plate was incubated and protected from light for 1 hour at room temperature prior to reading. Reads were performed on a CLARIOstar plate reader (BMG Labtech) with excitation at 485 nm, emission at 525 nm, and cutoff at 504 nm. Data were fitted to a 1:1 binding model with Hill slope using an in-house script.
In some embodiments, CHP polypeptide was prepared as follows: CHIP (residues 23-303 for competition FP and 23-154 for crystallography) with an N-terminal 6×His-TEV tag was recombinantly expressed in E. coli BL21 CodonPlus cells (Agilent) from a pET21b-derived expression vector (Novagen) (“6×His” disclosed as SEQ ID NO: 13). The cells were induced at OD600=0.6 with 1 mM IPTG for 4 hours at 37° C., then harvested and resuspended in 50 mM Tris-HCl pH 8.0, 500 mM NaCl, 10 mM imidazole, 10% glycerol, and 10 mM ß-me. For purification, the pellet was lysed with a tip sonicator with power level set at 400 W, 3 seconds on and 3 seconds off for 20 min, pelleted at 22,000×g for 30 minutes at 4° C. The supernatant was purified with Ni-NTA resin (Qiagen), eluting with 250 mM imidazole. Eluted proteins were pooled, concentrated, and TEV-cleaved by adding TEV protease at a ratio of 1:10 protease to protein and incubated overnight at 4° C. TEV-cleaved proteins were loaded onto a Superdex™ 10/300 75 pg (Cytiva) SEC column, and eluted in 50 mM HEPES, pH 8.0, 150 mM NaCl, 10% glycerol, 2 mM DTT. Fractions containing pure protein were collected, pooled, concentrated to 30 mg/mL and stored at −80° C. […]

pKd | SMILES
6.33 | CC[C@@H](C)[C@@H](NC(=O)[C@@H](CC(N)=O)NC(=O)[C@@H](Cc1ccc(O)cc1)NC(=O)[C@H]1CSCC(=O)Nc2ccc(cc2)NC(=O)CSC[C@@H](NC(=O)[C@@H](CC(=O)O)NC(=O)[C@@H](CCC(=O)O)NC(=O)[C@@H](Cc2c[nH]c3ccccc23)NC(=O)[C@H]2CCCN2C(C)=O)C(=O)N[C@H](C)C(=O)N[C@H](Cc2c[nH]c3ccccc23)C(=O)N[C@H](Cc2ccccc2)C(=O)N[C@H](C)C(=O)N[C@H](Cc2c[nH]c3ccccc23)C(=O)N[C@H](C)C(=O)N1)C(N)=O [H201, Ac-pwedcawfawacyni-NH2] (Ac-[dP][dW][dE][dD][dC][dA][dW][dF][dA][dW][dA][dC][dY][dN][dI]-NH2; linker 5-12 via Phenylene(1,4-NHCOCH2)2)
6.26 | CSCC[C@@H](NC(=O)[C@@H](CCC(=O)O)NC(=O)[C@@H](Cc1c[nH]cn1)NC(=O)[C@H]1CCCN1C(C)=O)C(=O)N[C@@H]1CSCC(=O)Nc2ccc(cc2)NC(=O)CSC[C@H](C(=O)N[C@H](CCCNC(=N)N)C(=O)N[C@H](Cc2ccc(O)cc2)C(=O)N[C@H](CO)C(N)=O)NC(=O)[C@@H](Cc2ccc(O)cc2)NC(=O)[C@@H](C)NC(=O)[C@@H](CC(=O)O)NC(=O)[C@@H](C)NC(=O)[C@@H](Cc2c[nH]c3ccccc23)NC(=O)[C@@H](Cc2ccc(O)cc2)NC1=O [H203, Ac-phemcywadaycrys-NH2] (Ac-[dP][dH][dE][dM][dC][dY][dW][dA][dD][dA][dY][dC][dR][dY][dS]-NH2; linker 5-12 via Phenylene(1,4-NHCOCH2)2)
6.11 | CC[C@@H](C)[C@@H](NC(=O)[C@H]1CSCC(=O)Nc2ccc(cc2)NC(=O)CSC[C@@H](NC(=O)[C@@H](CC(C)C)NC(=O)[C@@H](CC(=O)O)NC(=O)[C@@H](CC(C)C)NC(=O)[C@H]2CCCN2C(C)=O)C(=O)N[C@H](Cc2ccc(O)cc2)C(=O)N[C@H](Cc2c[nH]c3ccccc23)C(=O)N[C@H](C)C(=O)N[C@H](CO)C(=O)N[C@H](CC(C)C)C(=O)N[C@H](Cc2c[nH]cn2)C(=O)N1)C(=O)N[C@@H](C(=O)N[C@H](CO)C(N)=O)C(C)C [H204, Ac-pldlcywaslhcivs-NH2] (Ac-[dP][dL][dD][dL][dC][dY][dW][dA][dS][dL][dH][dC][dI][dV][dS]-NH2; linker 5-12 via Phenylene(1,4-NHCOCH2)2)
